What was measured:
Assay type in all cases: in vivo
[1] = test system: wild oat (AVEFA, Avena fatua); assay: Test G mixtures of Compound 26 with crop safeners, postemergence plant response; conditions: applied alone, 125 g a.i./ha
Procedure: (§1) This test evaluated the effect of mixtures of Compound 26 with commercial crop safeners cloquintocet-mexyl, mefenpyr-diethyl, and fenchlorazole-ethyl on three plant species. Seeds of winter wheat (TRZAW, Triticum aestivum), winter barley (HORVX, Hordeum vulgare), and wild oat (AVEFA, Avena fatua) (a weed) were planted into a silt loam soil. Plants from these seeds were treated postemergence using test chemicals formulated in a non-phytotoxic solvent mixture that included a surfactant. Plants ranged in height from 6 to 10 cm (2- to 3-leaf stage).
(§2) Plants were grown in a greenhouse using supplemental lighting to maintain a photoperiod of about 14 hours; daytime and nighttime temperatures were about 22-26° C. and 15-19° C., respectively. Balanced fertilizer was applied through the watering system. Treatments consisted of Compound 26 and the above mentioned safeners alone and in combination using a spray volume of 281 L/ha. Each treatment was replicated four times. Treated plants and controls were maintained in a greenhouse for 15 days, after which time all treated plants were compared to controls and visually evaluated. Plant response ratings were calculated as the means of the four replicates based on a scale of 0 to 100 where 0 is no effect and 100 is complete control and are summarized in Tables G1 to G3. Because the safeners alone caused no injury at the rates tested, the expected effect of a mixture of Compound 26 with a safener is the same as the observed effect of Compound 26 alone.
(§3) The highest application rate of each safener was tested alone to confirm the absence of herbicidal activity on the test species when appled postemergence at 125 g ai/ha. Therefore, an extrapolated result of zero for each safener alone at 16, 31, or 62 g ai/ha was used to calculate the mixture response of Compound 26 and these safener application rates.

[2] = test system: winter wheat (TRZAW, Triticum aestivum); assay: as above; conditions: applied alone, 125 g a.i./ha
Procedure: as §1, §2, §3

[3] = test system: winter barley (HORVX, Hordeum vulgare); assay: as above; conditions: applied alone, 125 g a.i./ha
Procedure: as §1, §2, §3

[4] = test system: canarygrass (Phalaris minor); assay: Test A pre-/postemergence plant response
Excerpt: (§4) Seeds of species selected from barnyardgrass (Echinochloa crus-galli), large crabgrass (Digitaria sanguinalis), giant foxtail (Setaria faberi), blackgrass (Alopecurus myosuroides), canarygrass (Phalaris minor), morningglory (Ipomoea coccinea), pigweed (Amaranthus retroflexus), velvetleaf (Abutilon theophrasti), wheat (Triticum aestivum), and corn (Zea mays) were planted into a blend of loam soil and sand and treated preemergence with a directed soil spray using test chemicals formulated in a non-phytotoxic solvent mixture which included a surfactant. At the same time these species were also treated with postemergence applications of test chemicals formulated in the same manner.
(§5) Plants ranged in height from 2 to 10 cm and were in the one- to two-leaf stage for the postemergence treatment. Treated plants and untreated controls were maintained in a greenhouse for approximately 10 days, after which time all treated plants were compared to untreated controls and visually evaluated for injury. Plant response ratings, summarized in Table A, are based on a 0 to 100 scale where 0 is no effect and 100 is complete control. A dash (-) response means no test results.

[5] = test system: pigweed (Amaranthus retroflexus); assay: Test A pre-/postemergence plant response
Excerpt: as §4, §5

[6] = test system: giant foxtail (Setaria faberi); assay: Test A pre-/postemergence plant response
Excerpt: as §4, §5

[7] = test system: barnyardgrass (Echinochloa crus-galli); assay: Test A pre-/postemergence plant response
Excerpt: as §4, §5

[8] = test system: wheat (Triticum aestivum); assay: Test A pre-/postemergence plant response
Excerpt: as §4, §5

[9] = test system: large crabgrass (Digitaria sanguinalis); assay: Test A pre-/postemergence plant response
Excerpt: as §4, §5

[10] = test system: blackgrass (Alopecurus myosuroides); assay: Test A pre-/postemergence plant response
Excerpt: as §4, §5

corn (Zea mays) = assay: Test A pre-/postemergence plant response
Excerpt: as §4, §5

[11] = test system: morningglory (Ipomoea coccinea); assay: Test A pre-/postemergence plant response
Excerpt: as §4, §5

[12] = test system: velvetleaf (Abutilon theophrasti); assay: Test A pre-/postemergence plant response
Excerpt: as §4, §5

rice (Oryza sativa) = assay: Test B flooded paddy test plant response
Outline: (§6)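 Step one: raise plants to 2 leaves. Step two: flood pots 3 cm over the soil and apply compound into the water, keeping this depth. Step three: after 13–15 greenhouse days, score visually versus controls, 0–100, where 100 means complete control.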

[13] = test system: barnyardgrass (Echinochloa crus-galli); assay: Test B flooded paddy test plant response
Outline: as §6

[14] = test system: ducksalad (Heteranthera limosa); assay: Test B flooded paddy test plant response
Outline: as §6

[15] = test system: umbrella sedge (Cyperus difformis); assay: Test B flooded paddy test plant response
Outline: as §6

[16] = Postemergence, 31 g ai/ha, 0 to 100 scale, 0 no effect, 100 complete control
[17] = Postemergence, 125 g ai/ha, 0 to 100 scale, 0 no effect, 100 complete control
[18] = Preemergence, 31 g ai/ha, 0 to 100 scale, 0 is no effect, 100 is complete control
[19] = Preemergence, 125 g ai/ha, 0 to 100 scale (0 no effect, 100 complete control)
[20] = Flood (flooded paddy test), 62 g ai/ha, scale 0 to 100, 0 no effect, 100 complete control
[21] = Flood (flooded paddy test), 250 g ai/ha, scale 0 to 100, 0 no effect, 100 complete control
[22] = Flood, 62 g ai/ha, scale 0 to 100

SMILES | Plant response rating, Pigweed [5, 16] | Plant response rating, Pigweed [5, 17] | Plant response rating, Pigweed [5, 18] | Plant response rating, Pigweed [5, 19] | Plant response rating, Foxtail, Giant [6, 16] | Plant response rating, Foxtail, Giant [6, 17] | Plant response rating, Foxtail, Giant [6, 18] | Plant response rating, Foxtail, Giant [6, 19] | Plant response rating, Barnyardgrass [7, 16] | Plant response rating, Barnyardgrass [7, 17] | Plant response rating, Barnyardgrass [7, 18] | Plant response rating, Barnyardgrass [7, 19] | Plant response rating, Wheat [8, 16] | Plant response rating, Wheat [8, 17] | Plant response rating, Wheat [8, 18] | Plant response rating, Wheat [8, 19] | Plant response rating, Crabgrass, Large [9, 16] | Plant response rating, Crabgrass, Large [9, 17] | Plant response rating, Crabgrass, Large [9, 18] | Plant response rating, Crabgrass, Large [9, 19] | further results
CCOC(=O)c1nc(C(Cl)(Cl)Cl)n(-c2ccc(Cl)cc2Cl)n1 [fenchlorazole-ethyl] |  |  |  |  |  |  |  |  |  |  |  |  |  |  |  |  |  |  |  |  | AVEFA Obsd. (observed effect) plant response rating, scale 0 to 100 [1]: 0; TRZAW Obsd. (observed effect) plant response rating, scale 0 to 100 [2]: 0; HORVX Obsd. (observed effect) plant response rating, scale 0 to 100 [3]: 0
CCOC(=O)C1=NN(c2ccc(Cl)cc2Cl)C(C)(C(=O)OCC)C1 (centres unmarked) [mefenpyr-diethyl] |  |  |  |  |  |  |  |  |  |  |  |  |  |  |  |  |  |  |  |  | AVEFA Obsd. (observed effect) plant response rating, scale 0 to 100 [1]: 0; TRZAW Obsd. (observed effect) plant response rating, scale 0 to 100 [2]: 0; HORVX Obsd. (observed effect) plant response rating, scale 0 to 100 [3]: 0
CC(C)Cc1cc(-c2ccc(Cl)cc2)nn1-c1c(O)cnn(C)c1=O [Compound 92] | 0 | 0 | 0 | 0 | 10 | 60 | 0 | 50 | 0 | 80 | 0 | 20 | 0 | 30 | 0 | 0 | 0 | 10 | 0 | 20 | Plant response rating, Canarygrass [4, 16]: 0; Plant response rating, Canarygrass [4, 17]: 30; Plant response rating, Canarygrass [4, 18]: 0; Plant response rating, Canarygrass [4, 19]: 10; Plant response rating, Blackgrass [10, 16]: 0; Plant response rating, Blackgrass [10, 17]: 50; Plant response rating, Blackgrass [10, 18]: 0; Plant response rating, Blackgrass [10, 19]: 0; Plant response rating, Corn (corn (Zea mays); [16]): 0; Plant response rating, Corn (corn (Zea mays); [17]): 20; Plant response rating, Corn (corn (Zea mays); [18]): 0; Plant response rating, Corn (corn (Zea mays); [19]): 20
Cc1cc(-c2ccc(Cl)cc2)nn1-c1c(OC(=O)N(C)C)cnn(C)c1=O [Compound 64] | 0 | 0 | 0 | 0 | 30 | 80 | 0 | 50 | 0 | 10 | 0 | 0 | 0 | 0 | 0 | 0 | 0 | 40 | 0 | 50 | Plant response rating, Morningglory [11, 16]: 0; Plant response rating, Morningglory [11, 17]: 0; Plant response rating, Morningglory [11, 18]: 0; Plant response rating, Morningglory [11, 19]: 0; Plant response rating, Corn (corn (Zea mays); [16]): 0; Plant response rating, Corn (corn (Zea mays); [17]): 60; Plant response rating, Corn (corn (Zea mays); [18]): 0; Plant response rating, Corn (corn (Zea mays); [19]): 30; Plant response rating, Velvetleaf [12, 16]: 0; Plant response rating, Velvetleaf [12, 17]: 0; Plant response rating, Velvetleaf [12, 18]: 0; Plant response rating, Velvetleaf [12, 19]: 0; Plant response rating, Rice (rice (Oryza sativa); [20]): 0; Plant response rating, Rice (rice (Oryza sativa); [21]): 0; Plant response rating, Barnyardgrass [13, 20]: 0; Plant response rating, Barnyardgrass [13, 21]: 0; Plant response rating, Ducksalad [14, 20]: 0; Plant response rating, Ducksalad [14, 21]: 0; Plant response rating, Sedge, Umbrella [15, 20]: 0; Plant response rating, Sedge, Umbrella [15, 21]: 0
CCc1cc(-c2ccc(Cl)cc2)nn1-c1c(O)c(C)nn(C)c1=O [Compound 86] | 0 | 0 | 0 | 0 | 70 | 90 | 10 | 100 | 100 | 100 | 50 | 100 | 20 | 50 | 0 | 40 | 70 | 100 | 10 | 90 | Plant response rating, Canarygrass [4, 17]: 100; Plant response rating, Canarygrass [4, 19]: 100; Plant response rating, Blackgrass [10, 16]: 80; Plant response rating, Blackgrass [10, 17]: 100; Plant response rating, Blackgrass [10, 18]: 50; Plant response rating, Blackgrass [10, 19]: 90; Plant response rating, Corn (corn (Zea mays); [16]): 30; Plant response rating, Corn (corn (Zea mays); [17]): 90; Plant response rating, Corn (corn (Zea mays); [18]): 0; Plant response rating, Corn (corn (Zea mays); [19]): 40; Plant response rating, Rice (rice (Oryza sativa); [21]): 35; Plant response rating, Rice (rice (Oryza sativa); [22]): 30; Plant response rating, Barnyardgrass [13, 21]: 40; Plant response rating, Barnyardgrass [13, 22]: 0; Plant response rating, Ducksalad [14, 21]: 65; Plant response rating, Ducksalad [14, 22]: 30; Plant response rating, Sedge, Umbrella [15, 21]: 55; Plant response rating, Sedge, Umbrella [15, 22]: 0

— patent US20100267561A1, “HERBICIDAL PYRIDAZINONE DERIVATIVES” (priority 2007, published 2010)
